Experimental findings from paper PMC8470104, “Anti-Metatype Antibody Screening, Sandwich Immunoassay Development, and Structural Insights for β-Lactams Based on Penicillin Binding Protein” (Molecules, 2021) are described below.

The structures appear in SMILES notation.

One assay concerns the target PBP2x* (Streptococcus pneumoniae, UniProt P14677). Kind of assay: direct competitive ELISA, binding affinity of β-lactams to PBP2x*. The settings on record: for IC50: IC50 (affinity to PBP2x*). From the text:
The anti-metatype antibodies that recognize the complex formed by the receptor and ligand was developed by immunization. The success of the immunization depends on the stability of the receptor–drug complex. In the present study, we hypothesized that the complex formed by PBP2x* and β-lactams with high affinity to PBP2x* would achieve higher stability, because more non-covalent bonds typically tend to form between the two. In addition, the conformational change of PBP2x* induced by the combination of the β-lactams with high affinity may be greater due to the existence of more interaction forces, which stimulate the PBP2x* to some extent. Therefore, a direct competitive ELISA was carried out to determine the affinity of 18 β-lactams to PBP2x*. […] In the cephalosporin group, CPZ, CFN, CFZ, and CFM performed poorly: affinities with IC50 were greater than 10 ng/mL, which was almost 2–50-fold that of other drugs such as CTRX, CTX, and KF. (Table 2). Therefore, for the preparation of anti-metatype antibodies, five β-lactams (including PNG, AMP, AMX, CTX, and KF) with high affinity to PBP2x* were selected to form a complex with PBP2x*.
The PBP2x* (100 μL/well) was diluted to an appropriate concentration and coated on microtiter plates, and incubated overnight at 4 °C. After the solution was poured, the plates were washed 3 times with washing buffer and patted dry. Then, 150 μL of blocking solution was added to each well, followed by 1 h of incubation at 37 °C. The β-lactam standards (50 μL), which were diluted to a series of concentrations, were added into each well, then 50 μL of the enzyme marker prepared in our previous study was added, and incubated at 37 °C for 30 min. After the washing procedure, the color was developed by adding tetramethylbenzidine (TMB) substrate. Finally, 2 M H2SO4 (50 μL/well) was used to stop the enzymatic reaction, and the optical density (OD) values of 450 nm was measured.
For orientation: ELISA stands for enzyme-linked immunosorbent assay.

In assay [1] the test system is PBP2x*-β-lactam complexes. In words: sandwich immunoassay of 18 PBP2x*-β-lactam complexes (capture mAb 4H11, detection pAb #5). The class given is binding. The settings on record: 1000 ng/mL; mAb 4H11 capture, pAb #5 detection; n = 3; S/N > 1 positive detection. As for the experimental part: Microtiter plates were coated with 100 μL anti-mouse IgG antibody in CB buffer and incubated at 4 °C overnight. The plates were subsequently washed and blocked with 150 μL of 2% skim milk. Then, 100 μL of diluted mAb was added to the wells and incubated for 1 h at 37 °C. After washing, 100 μL individual PBP2x* or receptor–ligand complexes of 18 β-lactams with PBP2x* that were diluted to 1 μg/mL was added. The incubation was carried out at 37 °C for 1 h, followed by another washing procedure. Then, 100 μL diluted HRP-labeled pAb was added to the wells and incubated for 1 h at 37 °C. The TMB substrate solution was added after washing, followed by the addition of 2 M H2SO4 to stop the reaction, and finally the OD values were measured at 450 nm.

The mark [2] stands for this setting: PBP2x* coated, enzyme marker competitor.

Sequence of PBP2x* (P14677 49-750): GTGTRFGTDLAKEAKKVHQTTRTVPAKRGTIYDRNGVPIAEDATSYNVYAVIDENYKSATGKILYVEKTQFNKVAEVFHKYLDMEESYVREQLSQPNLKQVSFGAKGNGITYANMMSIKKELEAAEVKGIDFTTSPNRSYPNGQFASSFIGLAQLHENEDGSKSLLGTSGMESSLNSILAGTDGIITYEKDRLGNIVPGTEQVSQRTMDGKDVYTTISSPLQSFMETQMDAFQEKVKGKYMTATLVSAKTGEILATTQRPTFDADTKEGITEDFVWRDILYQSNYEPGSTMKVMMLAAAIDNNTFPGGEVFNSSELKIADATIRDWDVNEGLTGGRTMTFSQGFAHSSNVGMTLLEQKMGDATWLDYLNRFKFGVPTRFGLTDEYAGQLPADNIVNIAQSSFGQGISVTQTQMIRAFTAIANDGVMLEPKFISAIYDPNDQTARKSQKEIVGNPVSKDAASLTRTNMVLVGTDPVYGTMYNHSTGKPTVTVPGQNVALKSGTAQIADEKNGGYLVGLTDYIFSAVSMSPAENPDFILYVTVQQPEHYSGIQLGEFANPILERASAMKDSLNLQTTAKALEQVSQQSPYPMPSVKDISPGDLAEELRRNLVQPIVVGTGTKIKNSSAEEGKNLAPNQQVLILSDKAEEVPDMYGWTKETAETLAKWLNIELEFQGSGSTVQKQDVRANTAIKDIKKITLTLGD

Regarding `NC(=O)c1cc[n+](CC2=C(C(=O)[O-])N3C(=O)[C@@H](NC(=O)Cc4cccs4)[C@H]3SC2)cc1` [CFN, Cefalonium], the IC50 (in general, the concentration at which inhibition is half-maximal) at PBP2x* (setting [2]) is 33.4 nM.

For `CCN1CCN(C(=O)N[C@@H](C(=O)N[C@@H]2C(=O)N3[C@@H]2SC(C)(C)[C@@H]3C(=O)O)c2ccccc2)C(=O)C1=O` [PIPC, Piperacillin], the “affinity to PBP2x* (in words)” value at PBP2x* is “high affinity”. Moreover, the IC50 at PBP2x* (setting [2]) was 15 nM.

`CCN1CCN(C(=O)N[C@@H](C(=O)N[C@@H]2C(=O)N3C(C(=O)O)=C(CSc4nnnn4C)CS[C@H]23)c2ccc(O)cc2)C(=O)C1=O` [CPZ, Cefoperazone]: the IC50 on PBP2x* (setting [2]) is 155 nM.

Consider `CC1(C)S[C@@H]2[C@H](NC(=O)[C@H](N)c3ccc(O)cc3)C(=O)N2[C@H]1C(=O)O` [AMX, Amoxicillin], for which the “affinity to PBP2x* (in words)” value at PBP2x* is listed as “high affinity”. The IC50 on PBP2x* (setting [2]) was 18.7 nM. In assay [1], the “Signal-to-noise ratio (S/N) of the sandwich immunoassay” value (“Signal-to-noise ratio (S/N)” below) is < 1.

In the case of `CC1(C)S[C@@H]2[C@H](NC(=O)Cc3ccccc3)C(=O)N2[C@H]1C(=O)O` [PNG, Penicillin G], the “affinity to PBP2x* (in words)” value on PBP2x* is on record as “high affinity”. Further, the IC50 at PBP2x* (setting [2]) was 10.6 nM. In addition, the “Signal-to-noise ratio (S/N)” value in assay [1] is reported as < 1.

For the molecule `C=CC1=C(C(=O)O)N2C(=O)[C@@H](NC(=O)/C(=N\OCC(=O)O)c3csc(N)n3)[C@H]2SC1` [CFM, Cefixime], the IC50 at PBP2x* (setting [2]) was 64.7 nM.

`CO/N=C(\C(=O)N[C@@H]1C(=O)N2C(C(=O)O)=C(CSC(=O)c3ccco3)CS[C@H]12)c1csc(N)n1` [CFT, Ceftiofur]: the IC50 at PBP2x* (setting [2]) is 5.02 nM.

With `CO/N=C(\C(=O)N[C@@H]1C(=O)N2C(C(=O)[O-])=C(C[N+]3(C)CCCC3)CS[C@H]12)c1csc(N)n1` [CFP, Cefepime], the IC50 at PBP2x* (setting [2]) is 15.2 nM.

As to `CO/N=C(\C(=O)N[C@@H]1C(=O)N2C(C(=O)O)=C(CSc3nc(=O)c(=O)[nH]n3C)CS[C@H]12)c1csc(N)n1` [CTRX, Cefatriaxone], the IC50 on PBP2x* (setting [2]) was 4.24 nM.

As to `Cc1nnc(SCC2=C(C(=O)O)N3C(=O)[C@@H](NC(=O)Cn4cnnn4)[C@H]3SC2)s1` [CFZ, Cefazolin], the IC50 at PBP2x* (setting [2]) was 53.6 nM.

For the molecule `CC(=O)OCC1=C(C(=O)O)N2C(=O)[C@@H](NC(=O)CSc3ccncc3)[C@H]2SC1` [CFAP, Cefapirin], the IC50 at PBP2x* (setting [2]) is 14.3 nM.

For the molecule `Cc1onc(-c2ccccc2)c1C(=O)N[C@@H]1C(=O)N2[C@@H]1SC(C)(C)[C@@H]2C(=O)O` [OXA, Oxacillin], the “affinity to PBP2x* (in words)” value at PBP2x* is “relatively poor affinity”. Further, the IC50 at PBP2x* (setting [2]) was 25.1 nM.

As to `Cc1onc(-c2ccccc2Cl)c1C(=O)N[C@@H]1C(=O)N2[C@@H]1SC(C)(C)[C@@H]2C(=O)O` [CLX, Cloxacillin], the “affinity to PBP2x* (in words)” value on PBP2x* is recorded as “relatively poor affinity”. Further, the IC50 at PBP2x* (setting [2]) was 173 nM.

Regarding `CC1(C)S[C@@H]2[C@H](NC(=O)[C@H](N)c3ccccc3)C(=O)N2[C@H]1C(=O)O` [AMP, Ampicillin], at PBP2x*, the “affinity to PBP2x* (in words)” value is recorded as “high affinity”. In addition, the IC50 at PBP2x* (setting [2]) was 22.3 nM. The “Signal-to-noise ratio (S/N)” value in assay [1] is given as < 1.

As to `Cc1onc(-c2c(Cl)cccc2Cl)c1C(=O)N[C@@H]1C(=O)N2[C@@H]1SC(C)(C)[C@@H]2C(=O)O` [DCX, Dicloxacillin], the “affinity to PBP2x* (in words)” value at PBP2x* is listed as “relatively poor affinity”. In addition, the IC50 on PBP2x* (setting [2]) is 32.6 nM.

On to `CC1(C)S[C@@H]2[C@H](NC(=O)[C@H](NC(=O)N3CCNC3=O)c3ccccc3)C(=O)N2[C@H]1C(=O)O` [AZL, Azlocillin], for which the “affinity to PBP2x* (in words)” value at PBP2x* is “high affinity”. Moreover, on PBP2x* (setting [2]), the IC50 was 14.5 nM.

For the molecule `CC(=O)OCC1=C(C(=O)O)N2C(=O)[C@@H](NC(=O)Cc3cccs3)[C@H]2SC1` [KF, Cefalothin], the “affinity to PBP2x* (in words)” value on PBP2x* was “high affinity”. Besides, at PBP2x* (setting [2]), the “IC50 (affinity to PBP2x*)” value is 7.89 ng/mL. In addition, the “Signal-to-noise ratio (S/N)” value in assay [1] is recorded as < 1.

On to `CO/N=C(\C(=O)N[C@@H]1C(=O)N2C(C(=O)O)=C(COC(C)=O)CS[C@H]12)c1csc(N)n1` [CTX, Cefotaxime], for which the “affinity to PBP2x* (in words)” value on PBP2x* was “high affinity”. For the same molecule, at PBP2x* (setting [2]), the IC50 was 10.4 nM.
